Test results as given in patent US20220016101A1 (ACADIA Pharmaceuticals Inc., priority 2018, published 2022).
Values joined by “and” are separate entries in the source; they are usually repeats but may differ in a detail not shown here. Equal values may be shown once.

Columns and labels:
[1] = system: adults with Parkinson's disease and depression; experiment: HAMD-17 total score, open-label study in Parkinson's disease and depression; format: in vivo, human; settings: Week 8; interim, first 31 patients
Procedure: Subjects can receive treatment as either monotherapy or adjunctively if inadequately controlled with SSRI/SNRI monotherapy. A primary endpoint of the study is change from baseline to Week 8 in the Hamilton Depression Scale 17-item (HAMD-17) total score. Secondary endpoints include Clinical Global Impression (CGI) scales (improvement and severity), Scale of Outcomes in PD-Sleep (SCOPA), and quality of life as measured by EuroQol-5 dimensions-5 levels (EQ-5D-5L).
Subjects were assessed for eligibility and prohibited medications were discontinued. After all screening assessments were completed, eligible subjects returned to the clinic for Baseline evaluation. After Baseline assessments were completed, subjects were enrolled and received the first dose of pimavanserin. Study medication were provided to the subjects to take home with instructions to take the medication approximately the same time each day, and return all used containers and unused study drug as scheduled.
At approximately 2, 4, and 6 weeks after start of dosing of study drug subjects returned to the clinic for assessments. Safety measures, HAMD-17, C-SSRS (Columbia Suicide Severity Rating Scale), CGI-S(Clinical Global Impression-Severity), and CGI-I (Clinical Global Impression-Improvement) were evaluated at all visits. […]
The HAMD-17 total score was analyzed using mixed model for repeated measures (MMRM). […]

[2] = system: patients with MDD and an inadequate response to an SSRI or SNRI; experiment: Safety and tolerability (adverse events), Study ACP-103-042
[3] = system: patients with MDD and an inadequate response to an SSRI or SNRI; experiment: HAMD-17 anxiety/somatization subscale score, MDD study; format: in vivo, human; settings: for HAMD-17 anxiety/somatization subscale score LSM (SE) Change from Baseline to Week 5: 34 mg QD + SSRI/SNRI
Procedure: Key endpoints were change from baseline to the end of each stage for the HAMD-17 total score and SDS score.
All patients continued on their SSRI or SNRI at a stable dose for the duration of the study.
Clinic visits occurred weekly from Weeks 1 through 10. The MADRS was administered at screening and baseline. The HAMD-17, SDS, CGI, and KSS were administered at baseline and weekly during the study. Other endpoints such as the SF-12 were administered at baseline and Weeks 5 and 10. Treatment response was defined as a reduction of 50% from baseline for the HAMD-17 total score, and remission was defined as a HAMD-17 total score
A higher HAMD-17 anxiety/somatization subscale score indicates more severe depression with anxiety symptoms.

[4] = Stage 1, subgroup baseline subscale score ≥7
[5] = Stage 2, subgroup baseline subscale score ≥7

## CC(C)COc1ccc(CNC(=O)N(Cc2ccc(F)cc2)C2CCN(C)CC2)cc1 [pimavanserin, N-(4-Fluorophenylmethyl)-N-(1-methylpiperidin-4-yl)-N′-(4-(2-methylpropyloxy)phenylmethyl)carbamide]
[1]
  patients reaching remission (HAMD-17≤7): 35.5%
  patients with ≥50% improvement in the HAMD-17: 45.2%
[2]; 34 mg QD + SSRI/SNRI
  Discontinuations due to adverse events: 1.2% and 1.9%
  rates of daytime sleepiness, weight gain, metabolic laboratory tests, and sexual dysfunction: low rates
  tolerability: generally well-tolerated
[2]; 34 mg QD + SSRI/SNRI, listed as Pimavanserin
  tolerability: well tolerated
[2]; deemed not related to study drug
  subjects reporting serious adverse events: One subject
[3]; Stage 1
  HAMD-17 anxiety/somatization subscale score Diff in LSM (SE) vs placebo: −1.5 (0.41)
  HAMD-17 anxiety/somatization subscale score Effect Size (Cohen's d): 0.634
  HAMD-17 anxiety/somatization subscale score LSM (SE) Change from Baseline to Week 5: −3.7 (0.36)
[3]; Stage 1, subgroup baseline anxiety/somatization subscale score ≥7
  HAMD-17 anxiety/somatization subscale score LSM (SE) Change from Baseline to Week 5: −5.0 (0.56)
[3]; [4]
  HAMD-17 anxiety/somatization subscale score Diff in LSM (SE) vs placebo: −2.2 (0.66)
  HAMD-17 anxiety/somatization subscale score Effect Size (Cohen's d): 0.781
[3]; Stage 2
  HAMD-17 anxiety/somatization subscale score Diff in LSM (SE) vs placebo: 0.0 (0.48)
  HAMD-17 anxiety/somatization subscale score Effect Size (Cohen's d): −0.007
  HAMD-17 anxiety/somatization subscale score LSM (SE) Change from Baseline to Week 5: −0.6 (0.33)
[3]; Stage 2, subgroup baseline anxiety/somatization subscale score ≥7
  HAMD-17 anxiety/somatization subscale score LSM (SE) Change from Baseline to Week 5: −1.3 (0.44)
[3]; [5]
  HAMD-17 anxiety/somatization subscale score Diff in LSM (SE) vs placebo: 0.1 (0.66)
  HAMD-17 anxiety/somatization subscale score Effect Size (Cohen's d): −0.067
